# Reference: the supplement of paper PMC11208160
# Assay: recombinant UMI read abundance after kanamycin selection (control-corrected) (log10(CPM+1)); higher = more efficient recombination; extreme values may be limits of the assay; sequences stand for … in AGTGCAGAGAAAATCGGCCAGTTTTCTCTGCCTGCAGTCCGCATGCCGTGGGACCCCTTGGGTTCTAACCTGTTGCCTAGATTTATGCAGCGGACTGCCTTTCTCCCAAAGTGATAAACCGG…AGGTTGGTTTCACT; site = the 11-nt donor
# How it was run: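 After plating on IPTG (0.07 mM) plus kanamycin, or unselected, in two replicates, recombinant UMIs were PCR-amplified across the donor–target junction and sequenced. The cells were Escherichia coli co-electroporated with a UMI-tagged donor and donor-binding-loop pair library and a target plasmid with a fixed target and T7-inducible IS621 bridge recombinase. Values are log10(CPM+1), with CPM averaged over replicates and scaled by control-derived factors.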
row,Sequence,recombinant UMI read abundance (log10)
1,CGGAATCCATGGACCGGTTTTCCCGGTAATCCGTATTTGTC (site CGGAATCCTTA),0
2,CGGAATGCATGGACCGGTTTTCCCGGTAATCCGTATTTGTT (site CGGAATACTAA),2
3,CGGAATGCATGGACCGGTTTTCCCGGTAATCCGTATTTGTT (site CGGAATCCTAA),0.00325
4,CGGAATGCATGGACCGGTTTTCCCGGTAATCCGTATTTGTT (site CGGAATGCTAA),2.84
5,CGGAATGCATGGACCGGTTTTCCCGGTAATCCGTATTTGTT (site CGGAATTCTAA),0
6,CGGACACCATGGACCGGTTTTCCCGGTAATCCGTATTTGCT (site CGGACAACTAG),0
7,CGGACACCATGGACCGGTTTTCCCGGTAATCCGTATTTGCT (site CGGACACCTAG),0
8,CGGACACCATGGACCGGTTTTCCCGGTAATCCGTATTTGCT (site CGGACAGCTAG),0.00902
9,CGGACACCATGGACCGGTTTTCCCGGTAATCCGTATTTGCT (site CGGACATCTAG),0
10,CGGACAGCATGGACCGGTTTTCCCGGTAATCCGTATTTGCT (site CGGACAACTAG),0.393
11,CGGACAGCATGGACCGGTTTTCCCGGTAATCCGTATTTGCT (site CGGACACCTAG),0
12,CGGACAGCATGGACCGGTTTTCCCGGTAATCCGTATTTGCT (site CGGACAGCTAG),2.07
13,CGGACAGCATGGACCGGTTTTCCCGGTAATCCGTATTTGCT (site CGGACATCTAG),0
14,CGGACATCATGGACCGGTTTTCCCGGTAATCCGTATTTGTT (site CGGACATCTAA),2.07
15,CGGACATCATGGACCGGTTTTCCCGGTAATCCGTATTTGTT (site CGGACATCTAC),0.00517
16,CGGACATCATGGACCGGTTTTCCCGGTAATCCGTATTTGTT (site CGGACATCTAG),0
17,CGGACATCATGGACCGGTTTTCCCGGTAATCCGTATTTGTT (site CGGACATCTAT),0
18,CGGACTCCATGGACCGGTTTTCCCGGTAATCCGTATTTGTG (site CGGAATCCTAA),0.00428
19,CGGACTCCATGGACCGGTTTTCCCGGTAATCCGTATTTGTG (site CGGACTCCTCA),0.0192

row,Sequence,recombinant UMI read abundance (log10)
1,CGGAGATCATGGACCGGTTTTCCCGGTAATCCGTATTTGCT (site CGGAAATCTAG),1.27
2,CGGAGATCATGGACCGGTTTTCCCGGTAATCCGTATTTGCT (site CGGACATCTAG),0
3,CGGAGATCATGGACCGGTTTTCCCGGTAATCCGTATTTGCT (site CGGAGATCTAG),3.03
4,CGGAGATCATGGACCGGTTTTCCCGGTAATCCGTATTTGCT (site CGGATATCTAG),0
5,CGGAGGACATGGACCGGTTTTCCCGGTAATCCGTATTTGCC (site CGGAGGACTGG),2.76
6,CGGAGTCCATGGACCGGTTTTCCCGGTAATCCGTATTTGTC (site CGGAATCCTAA),0
7,CGGAGTCCATGGACCGGTTTTCCCGGTAATCCGTATTTGTC (site CGGAGTCCTGA),1.34
8,CGGATGACATGGACCGGTTTTCCCGGTAATCCGTATTTGAT (site CGGATGACTAT),2.14
9,CGGATTCCATGGACCGGTTTTCCCGGTAATCCGTATTTGTA (site CGGAATCCTAA),0.0133
10,CGGATTCCATGGACCGGTTTTCCCGGTAATCCGTATTTGTA (site CGGATTCCTTA),0
11,CGGATTTCATGGACCGGTTTTCCCGGTAATCCGTATTTGTT (site CGGAATCCTAA),0
12,CGGATTTCATGGACCGGTTTTCCCGGTAATCCGTATTTGTT (site CGGATTTCTAA),0.891
13,CGGCAACCATGGACCGGTTTTCCCGGTAATCCGTATTTGAT (site CGGAAACCTAT),0
14,CGGCAACCATGGACCGGTTTTCCCGGTAATCCGTATTTGAT (site CGGCAACCTAT),0
15,CGGCAACCATGGACCGGTTTTCCCGGTAATCCGTATTTGAT (site CGGGAACCTAT),0
16,CGGCAACCATGGACCGGTTTTCCCGGTAATCCGTATTTGAT (site CGGTAACCTAT),0
17,CGGCACCCATGGACCGGTTTTCCCGGTAATCCGTATTTGTT (site CGGAATCCTAA),0.00519
18,CGGCACCCATGGACCGGTTTTCCCGGTAATCCGTATTTGTT (site CGGCACCCTAA),0.393
19,CGGCATCCATGGACCGGTTTTCCCGGTAATCCGTATTTGTC (site CGGCATCCTGA),0

row,Sequence,recombinant UMI read abundance (log10)
1,CGGCATGCATGGACCGGTTTTCCCGGTAATCCGTATTTGTT (site CGGAATCCTAA),0.00719
2,CGGCATGCATGGACCGGTTTTCCCGGTAATCCGTATTTGTT (site CGGCATGCTAA),2.31
3,CGGCCGTCATGGACCGGTTTTCCCGGTAATCCGTATTTGAT (site CGGCCGTCTAT),0.968
4,CGGCGGCCATGGACCGGTTTTCCCGGTAATCCGTATTTGTC (site CGGCGGCCTGA),0.965
5,CGGCTGCCATGGACCGGTTTTCCCGGTAATCCGTATTTGCA (site CGGCTGCCTTG),1.18
6,CGGCTGGCATGGACCGGTTTTCCCGGTAATCCGTATTTGGT (site CGGCTGGCTAC),1.17
7,CGGGAACCATGGACCGGTTTTCCCGGTAATCCGTATTTGAA (site CGGGAACCTAT),0
8,CGGGAACCATGGACCGGTTTTCCCGGTAATCCGTATTTGAA (site CGGGAACCTCT),0.00576
9,CGGGAACCATGGACCGGTTTTCCCGGTAATCCGTATTTGAA (site CGGGAACCTGT),0
10,CGGGAACCATGGACCGGTTTTCCCGGTAATCCGTATTTGAA (site CGGGAACCTTT),0
11,CGGGAGCCATGGACCGGTTTTCCCGGTAATCCGTATTTGCT (site CGGGAGCCTAG),0.17
12,CGGGAGGCATGGACCGGTTTTCCCGGTAATCCGTATTTGCC (site CGGGAGACTGG),0
13,CGGGAGGCATGGACCGGTTTTCCCGGTAATCCGTATTTGCC (site CGGGAGCCTGG),0
14,CGGGAGGCATGGACCGGTTTTCCCGGTAATCCGTATTTGCC (site CGGGAGGCTGG),0.183
15,CGGGAGGCATGGACCGGTTTTCCCGGTAATCCGTATTTGCC (site CGGGAGTCTGG),0
16,CGGGAGTCATGGACCGGTTTTCCCGGTAATCCGTATTTGAC (site CGGGAGTCTGA),2.28
17,CGGGAGTCATGGACCGGTTTTCCCGGTAATCCGTATTTGAC (site CGGGAGTCTGC),1.66
18,CGGGAGTCATGGACCGGTTTTCCCGGTAATCCGTATTTGAC (site CGGGAGTCTGG),1.25
19,CGGGAGTCATGGACCGGTTTTCCCGGTAATCCGTATTTGAC (site CGGGAGTCTGT),0.147
